What was measured:
[1] = test system: Escherichia coli expressing NDM-1 (CLB30016); test: Antibiotic potentiation activity: synergistic concentration (MITC95) with imipenem, growth by OD600; format: cell-based; conditions: 95% inhibition of bacterial growth, strain CLB30016
Summary of the method: (§1)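 Colonies from overnight agar plates (35 °C) were suspended in saline and diluted 1:100 into 1.1× CAMHB. Inhibitor (final 200 μM to 0.195 μM) was combined with imipenem at 1 or 4 μg/ml, incubated 22–24 h at 35 °C, and absorbance read; MITC95 is the lowest inhibitor concentration giving 95% growth inhibition.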

[2] = test system: Klebsiella pneumoniae expressing VIM-1 (IHMA599644); test: as above; format: cell-based; conditions: 95% inhibition of bacterial growth, strain IHMA599644
Summary of the method: as §1

[3] = test system: Serratia marcescens expressing IMP-1 (CL5741); test: as above; format: cell-based; conditions: 95% inhibition of bacterial growth, strain CL5741
Summary of the method: as §1

[4] = molecular target: VIM-1 (Pseudomonas aeruginosa, UniProt A0A0F7KYQ8); test: Enzyme activity: determination of IC50, fluorescence assay with CCF2-FA substrate; format: biochemical; conditions: enzyme 30 pM, CCF2-FA 1.25 μM, 2 hours at 25° C.; read-out: VIM1 IC50
Summary of the method: (§2)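 Final enzyme levels differed by target: 1 pM NDM-1, 2 pM IMP-1, 30 pM VIM-1. Each was incubated 2 hours at 25° C with test compound and 1.25 μM CCF2-FA, and 460 nm fluorescence (405 nm excitation) was fitted by 4-parameter curve to obtain IC50.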

[5] = molecular target: IMP-1 (Serratia marcescens, UniProt P52699); test: as above; format: biochemical; conditions: enzyme 2 pM, CCF2-FA 1.25 μM, 2 hours at 25° C.; read-out: IMP1 IC50
Summary of the method: as §2

[6] = molecular target: NDM-1 (Klebsiella pneumoniae, UniProt C7C422); test: as above; format: biochemical; conditions: enzyme 1 pM, CCF2-FA 1.25 μM, 2 hours at 25° C.; read-out: NDM1 IC50
Summary of the method: as §2

Chain of NDM-1 (C7C422 29-270, looked up, species assumed): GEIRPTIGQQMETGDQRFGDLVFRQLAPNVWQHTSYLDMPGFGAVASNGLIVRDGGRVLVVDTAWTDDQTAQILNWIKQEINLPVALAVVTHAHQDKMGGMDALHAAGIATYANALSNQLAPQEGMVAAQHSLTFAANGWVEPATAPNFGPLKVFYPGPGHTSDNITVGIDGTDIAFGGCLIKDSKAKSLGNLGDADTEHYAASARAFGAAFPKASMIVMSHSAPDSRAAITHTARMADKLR
Chain of IMP-1 (P52699 19-246, looked up, species assumed): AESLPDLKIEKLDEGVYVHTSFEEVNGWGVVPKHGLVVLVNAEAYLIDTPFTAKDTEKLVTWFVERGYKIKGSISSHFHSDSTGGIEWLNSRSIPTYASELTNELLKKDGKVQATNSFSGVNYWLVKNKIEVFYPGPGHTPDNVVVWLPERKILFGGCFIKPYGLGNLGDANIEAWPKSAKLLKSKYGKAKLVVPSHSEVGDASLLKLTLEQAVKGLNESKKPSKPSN

Structure (SMILES)	NDM1 EC30016 MITC95 [1]	VIM1 KP599644 MITC95 [2]	IMP1 SM5741 MITC95 [3]	IC50 [4]	IC50 [5]	IC50 [6]
CC(C)[C@H](C(=O)O)[C@H](Cc1ccc(C2CCNC2)nc1)c1nnn[nH]1 (stereo partly drawn) [Example 105, (2S,3S)-2-isopropyl-4-(6-(pyrrolidin-3-yl)pyridin-3-yl)-3-(1H-tetrazol-5-yl)butanoic acid]	3.1 µM	12.5 µM	50 µM	20 nM	14000 nM	170 nM
O=C(O)[C@@H](C1CCOC1)[C@H](Cc1ccc(C2CCNC2)cc1)c1nnn[nH]1 (stereo partly drawn) [Example 107, (2R,3S)-4-(4-(pyrrolidin-3-yl)phenyl)-2-(tetrahydrofuran-3-yl)-3-(1H-tetrazol-5-yl)butanoic acid]	9.4 µM	12.5 µM	50 µM	30 nM	5900 nM	380 nM
CC(C)[C@H](C(=O)O)[C@H](Cc1csc(C2CCNC2)n1)c1nnn[nH]1 (stereo partly drawn) [Example 108, (2S,3S)-2-isopropyl-4-(2-(pyrrolidin-3-yl)thiazol-4-yl)-3-(1H-tetrazol-5-yl)butanoic acid]	12.5 µM	37 µM	>200 µM	750 nM	> 20000 nM	2800 nM
CC(C)[C@H](C(=O)O)[C@H](Cc1ccc(C2CCNC2)c(F)c1)c1nnn[nH]1 (stereo partly drawn) [Example 109, (2S,3S)-4-(3-fluoro-4-(pyrrolidin-3-yl)phenyl)-2-isopropyl 3-(1H-tetrazol-5-yl)butanoic acid]	3.1 µM	4.7 µM	12.5 µM	1.2 nM	450 nM	17 nM
Cc1cc(C[C@H](c2nnn[nH]2)[C@@H](C(=O)O)C(C)C)ccc1C1CCNC1 (stereo partly drawn) [Example 110, (2S,3S)-2-isopropyl-4-(3-methyl-4-(pyrrolidin-3-yl)phenyl)-3-(1H-tetrazol-5-yl)butanoic acid]	4.7 µM	6.2 µM	18.8 µM	4.4 nM	1400 nM	24 nM
CCC[C@H](C(=O)O)[C@H](Cc1ccc(N)cn1)c1nnn[nH]1 [Example 111, (S)-2-((S)-2-(5-aminopyridin-2-yl)-1-(1H-tetrazol-5-yl)ethyl)pentanoic acid]	0.49 µM	5.5 µM	44 µM	77 nM	7700 nM	230 nM
CC(C)C[C@H](C(=O)O)[C@H](Cc1ccc(N)nc1)c1nnn[nH]1 [Example 112, 2-amino-5-((2S,3S)-3-carboxy-5-methyl-2-(2H-tetrazol-5-yl)hexyl)pyridin-1-ium 2,2,2-trifluoroacetate]	0.54 µM	5.5 µM	11 µM	4.9 nM	570 nM	110 nM
CC(C)C[C@H](C(=O)O)[C@H](Cc1ccc(N)cn1)c1nnn[nH]1 [Example 113, 5-amino-2-((2S,3S)-3-carboxy-5-methyl-2-(2H-tetrazol-5-yl)hexyl)pyridin-1-ium 2,2,2-trifluoroacetate]	0.78 µM	9.4 µM	18.8 µM	79 nM	2100 nM	130 nM
CCC[C@H](C(=O)O)[C@H](Cc1ccc(N)nc1)c1nnn[nH]1 [Example 114, (S)-2-((S)-2-(6-aminopyridin-3-yl)-1-(1H-tetrazol-5-yl)ethyl)pentanoic acid]	0.39 µM	2.3 µM	18.8 µM	6.2 nM	3700 nM	180 nM
CCC[C@H](C(=O)O)[C@H](Cc1cnc(N)s1)c1nnn[nH]1 [Example 115, (2S)-2-[(1S)-2-(2-amino-1,3-thiazol-5-yl)-1-(1H-tetrazol-5-yl)ethyl]pentanoic acid]	0.78 µM	9.4 µM	25 µM	6.5 nM	1500 nM	170 nM
CC(C)C[C@H](C(=O)O)[C@H](Cc1cnc(N)s1)c1nnn[nH]1 [Example 116, (2S)2-[(1S)-2-(2-amino-1,3-thiazol-5-yl)-1-(1H-tetrazol-5-yl)ethyl]-4-methylpentanoic acid]	3.1 µM	18.8 µM	9.4 µM	4.4 nM	290 nM	140 nM
CCC[C@H](C(=O)O)[C@H](Cc1cccc(N)n1)c1nnn[nH]1 [Example 117, (2S)-2-[(1S)-2-(6-aminopyridin-2-yl)-1-(1H-tetrazol-5-yl)ethyl]pentanoic acid]	1.6 µM	18.8 µM	>200 µM	370 nM	> 20000 nM	1300 nM
CCC[C@H](C(=O)O)[C@H](Cc1ccnc(N)c1)c1nnn[nH]1 [Example 118, (2S)-2-[(1S)-2-(2-aminopyridin-4-yl)-1-(1H-tetrazol-5-yl)ethyl]pentanoic acid]	2.3 µM	6.2 µM	200 µM	10 nM	> 20000 nM	1100 nM
CC(C)C[C@H](C(=O)O)[C@H](Cc1ccc2ncc(N)cc2c1)c1nnn[nH]1 [Example 119, (S)-2-((S)-2-(3-aminoquinolin-6-yl)-1-(1H-tetrazol-5-yl)ethyl)-4-methylpentanoic acid]	9.4 µM	25 µM	3.1 µM	1 nM	52 nM	12 nM
CC(C)[C@H](C(=O)O)[C@H](Cc1ccc(N)nc1)c1nnn[nH]1 [Example 121, (2S,3S)-4-(6-aminopyridin-3-yl)-2-isopropyl-3-(1H-tetrazol-5-yl)butanoic acid]	0.21 µM	5.5 µM	37 µM	35 nM	6000 nM	120 nM
Nc1ccc(C[C@H](c2nnn[nH]2)[C@@H](C(=O)O)C2CCCC2)cn1 [Example 122, (2S,3S)-4-(6-aminopyridin-3-yl)-2-cyclopentyl-3-(1H-tetrazol-5-yl)butanoic acid]	0.39 µM	6.2 µM	12.5 µM	1.4 nM	620 nM	39 nM
CC(C)(C)[C@H](C(=O)O)[C@H](Cc1ccc(N)nc1)c1nnn[nH]1 [Example 123, (2R,3S)-4-(6-aminopyridin-3-yl)-2-(tert-butyl)-3-(1H-tetrazol-5-yl)butanoic acid]	3.1 µM	50 µM	>200 µM	590 nM	> 20000 nM	1100 nM
CC(C)[C@H](C(=O)O)[C@H](Cc1ccc(N[C@@H]2CCNC2)nc1)c1nnn[nH]1 [Example 124, (2S,3S)-2-isopropyl-4-(6-((R)-pyrrolidin-3-ylamino)pyridin-3-yl)-3-(1H-tetrazol-5-yl)butanoic acid]	4.7 µM	50 µM	100 µM	59 nM	15000 nM	540 nM
CC(C)[C@H](C(=O)O)[C@H](Cc1ccc(N)cn1)c1nnn[nH]1 [Example 125, (2S,3S)-4-(5-aminopyridin-2-yl)-2-isopropyl-3-(1H-tetrazol-5-yl)butanoic acid]	0.39 µM	12.5 µM	75 µM	240 nM	12000 nM	170 nM
CC(C)[C@H](C(=O)O)[C@H](Cc1ccc(N2CCC[C@H]2CO)nc1)c1nnn[nH]1 [Example 126, (2S,3S)-4-(6-((S)-2-(hydroxymethyl)pyrrolidin-1-yl)pyridin-3-yl)-2-isopropyl-3-(1H-tetrazol-5-yl)butanoic acid]	6.2 µM	50 µM	25 µM	34 nM	530 nM	63 nM
CC(C)[C@H](C(=O)O)[C@H](Cc1ccc(N2CCC[C@@H]2CO)nc1)c1nnn[nH]1 [Example 127, (2S,3S)-4-(6-((R)-2-(hydroxymethyl)pyrrolidin-1-yl)pyridin-3-yl)-2-isopropyl-3-(1H-tetrazol-5-yl)butanoic acid]	12.5 µM	200 µM	200 µM	280 nM	10000 nM	320 nM

— patent US9839642B2, “Beta-tetrazolyl-propionic acids as metallo-beta-lactamase inhibitors” (priority 2014, dated 2017)
